{
  "source": "patent US6495522B1",
  "about": "“Substituted alpha-hydroxy acid caspase inhibitors and the use thereof” (Cytovia, Inc., priority 1999, dated 2002)",
  "key": {"HeLa cells": {"system": "HeLa cells", "assay": "Cell protection: HeLa cell death induced by TNF-α", "format": "cell-based", "details": "TNF-α (25 ng/ml) and cycloheximide (30 μg/ml), 24 hours, calcein AM, read-out: EC50 for cytoprotection", "experimental": "Cell protection activity was determined by examining the ability of S-2-methyl-1-(carbonyl-Asp-CH2F)propyl N-phenylcarbamate to block HeLa cell death induced by TNF-α. In this assay, 25,000 HeLa cells are seeded in 96-well plates 24 hours prior to testing. On the assay day, the cells are pre-incubated for 30 minutes with the test compound at eight different concentrations and the cells are then challenged with TNF-α (25 ng/ml) and cycloheximide (30 μg/ml) and incubated further for 24 hours. The dead cells are then removed by two PBS washes and 100 μL of a cell-mass indicator solution (calcein AM, final concentration 8 μM) is added. After a 20 minute incubation, the fluorescent signal is measured at 485/510 nm and the data are expressed as percent control, using control cultures treated only with cycloheximide."}, "rcaspase 3": {"target": "T1, rcaspase 3 (Homo sapiens, UniProt P42574)", "T1 construct": "purchased PharMingen (a Becton division company, San Diego, Calif.)", "T1 sequence (P42574 29-175 limits assumed)": "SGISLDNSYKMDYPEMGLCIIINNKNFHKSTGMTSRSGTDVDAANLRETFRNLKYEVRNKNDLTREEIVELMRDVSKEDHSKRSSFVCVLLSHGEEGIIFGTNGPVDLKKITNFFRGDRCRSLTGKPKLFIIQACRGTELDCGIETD", "T1 sequence (P42574 176-277 limits assumed)": "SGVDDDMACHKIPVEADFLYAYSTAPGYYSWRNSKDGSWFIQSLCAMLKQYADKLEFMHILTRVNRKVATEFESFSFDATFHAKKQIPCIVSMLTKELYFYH", "assay": "Fluorometric caspase-3 enzyme assay", "format": "biochemical", "details": "2 ng rcaspase 3, 10 μM Ac-DEVD-AMC, 37° C., 30 minutes; read-out: IC50 as an inhibitor of caspase-3", "experimental": "The activity of S-2-methyl-1-(carbonyl-Asp-CH2F)propyl N-phenylcarbamate as an inhibitor of caspase-3 was measured in a fluorometric enzyme assay. Enzyme activity was measured using synthetic peptide substrates attached to a fluorogenic leaving group. Cleavage of the synthetic substrate by the enzyme results in a fluorescent signal which is read in a spectrofluorometer or in a fluorometric microtiter plate reader.\n12 concentrations of the test compound ranging from 30 pM to 10 μM were tested in the enzyme assay. The enzyme reaction was conducted in the presence of 2 ng rcaspase 3 (purchased from PharMingen, a Becton division company, San Diego, Calif.), various concentrations of test compound, 10 μM caspase 3 substrate Ac-DEVD-AMC (SEQ ID NO:1, purchased from Quality Controlled Biochemicals, Inc. Hopkinton, Mass.) and caspase buffer (20 mM PIPES, 100 mM NaCl, 10 mM DTT, 1 mM EDTA, 0.1% CHAPS and 10% sucrose, pH 7.2) in a total volume of 100 μL. The enzyme reaction was carried out in a 96-well plate and incubated at 37° C. for 30 minutes. The plate was then read with a fluorescence plate reader (EG&G WALLAG 1420-002) using excitation filter at 355 nm/emission filter at 460 nm."}},
  "data": [
    {"molecule": "CC(C)[C@H](OC(=O)Nc1ccccc1)C(=O)N[C@@H](CC(=O)O)C(=O)CF", "note": "[Example 3, S-2-Methyl-1-(carbonyl-Asp-CH2F)propyl N-Phenylcarbamate]", "values": [
      {"measurement": "EC50", "setting": "HeLa cells", "value": 150, "unit": "nM"},
      {"measurement": "IC50", "setting": "rcaspase 3", "value": 17, "unit": "nM"}
    ]}
  ]
}
